Data as given in ChEMBL document CHEMBL4819058, “An amide mimic of desTHPdactylolide: Total synthesis and antiproliferative evaluation” (Bioorg Med Chem Lett, 2021).

Key:
[1] = system: PC-3; experiment: Antiproliferative activity against androgen-insensitive human PC-3 cells assessed as reduction in cell viability incubated for 3 days by WST-1 assay; format: functional, cell-based; conditions: PC-3, 72 h
[2] = system: PC-3; experiment: Antiproliferative activity against Docetaxel-resistant human PC-3 cells assessed as reduction in cell viability incubated for 3 days by WST-1 assay; format: functional, cell-based; conditions: PC-3, 72 h
[3] = system: DU-145; experiment: Antiproliferative activity against androgen-insensitive human DU-145 cells assessed as reduction in cell viability incubated for 3 days by WST-1 assay; format: functional, cell-based; conditions: DU-145, 72 h
[4] = system: DU-145; experiment: Antiproliferative activity against Docetaxel-resistant human DU-145 cells assessed as reduction in cell viability incubated for 3 days by WST-1 assay; format: functional, cell-based; conditions: DU-145, 72 h
[5] = system: LNCaP; experiment: Antiproliferative activity against androgen-insensitive human LNCaP cells assessed as reduction in cell viability incubated for 3 days by WST-1 assay; format: functional, cell-based; conditions: 72 h
[6] = Resistance index, ratio of IC50 for antiproliferative activity against human PC-3/DTX cells to IC50 for antiproliferative activity against human PC-3 cells; format: functional
[7] = Resistance index, ratio of IC50 for antiproliferative activity against human DU145/DTX cells to IC50 for antiproliferative activity against human DU145 cells; format: functional

SMILES	IC50 [1] [µM]	IC50 [2] [µM]	IC50 [3] [µM]	IC50 [4] [µM]	IC50 [5] [µM]	Ratio IC50 [6]	Ratio IC50 [7]
C/C1=C/C=C/C(=O)N[C@@H](CO)C/C(C)=C/COCC/C=C/C(=O)C1	> 12.5	> 12.5	11.1	> 12.5	> 12.5		
C/C1=C/C=C/C(=O)N[C@@H](C=O)C/C(C)=C/COCC/C=C/C(=O)C1	9.76	10.2	8.48	10.2	10.9	1.05	1.2
COc1ccc(COC[C@H]2C/C(C)=C/COCC/C=C/C(=O)C/C(C)=C\C=C\C(=O)N2)cc1	7.7	4.4	4.87	7.36	6.26	0.57	1.51
CC(=O)O[C@@]12CO[C@@H]1C[C@H](O)[C@@]1(C)C(=O)[C@H](O)C3=C(C)[C@@H](OC(=O)[C@H](O)[C@@H](NC(=O)OC(C)(C)C)c4ccccc4)C[C@@](O)([C@@H](OC(=O)c4ccccc4)[C@H]21)C3(C)C [DOCETAXEL ANHYDROUS]		2.34					
